Patent publication US4826856A, “Calcium antagonistic dihydropyridine derivative” (Yason s.r.l., priority 1985, dated 1989)
Like-named read-outs stand apart in the source and are kept apart here.

Legend:
[1] = Pharmacokinetics and bioavailability in dogs; type: in vivo; details: dog; for half-life: hydrochloride
Method: YS 201 hydrochloride was intravenously and orally administered to dogs at 1 and 10 mg/kg respectively.

[2] = Acute toxicity in the mouse; details: in vivo
Source text: The acute toxicity of YS 201 given by intraveous route, similar in the males and in the females in the rat as well as in the mouse, is as follows:
The acute toxicity of YS 201 given by oral route, similar in the males and in the females in the rat as well as in the mouse, is as follows: […]

[3] = test system: post-oligoemic rats; assay: Transient cerebral oligoemia in the rat, cerebral water, K+ and Ca++ content; type: in vivo
Method: Transient cerebral oligoemia in the rat
The method described by Borzeix in Circulation et Metabolisme du Cerveau 1, 63-79, John Libbey Eurotext Publ. […] The animals were treated by the oral route with the tested drugs twice a day, starting one hour after the ligation and for 3 days, in scalar doses.
The last dose, at the 71th hour after the occlusion, preceeded by one hour the sacrifice of the animal, whose brain was subjected to the determination of the H2 O, K^+ and Ca^++ content.

[4] = test system: normotensive rats; assay: Effect on blood pressure in normotensive rats (intraduodenal); type: in vivo, rat; details: 15 mg/kg intraduodenal; for HR (heart rate): in beats/min (unit assumed)
Method: Comparative effect of YS 201 on 3 month old rats and 6 month old SHR-SP
YS 201 was given by intraduodenal route at 15 mg/kg in normotensive rats.

CCOC(=O)C1=C(C)NC(C)=C(C(=O)OCCN2CCCCC2)C1c1cccc([N+](=O)[O-])c1 (stereo not drawn) [YS 201, ethyl-(β-piperidinoethyl)-2,6-dimethyl-4-(3-nitrophenyl)-1,4-dihydropyridine-3,5-dicarboxylate]
decline in concentration ([1]; 1 mg/kg intravenous): typically biexponential | bioavailability ([1]; in vivo, 10 mg/kg, oral, read-out: average apparent bioavailable fraction): 19.4% | half-life ([1]; in vivo, 1 mg/kg intravenous, read-out: mean half-life of elimination): 88 min | half-life ([1]; in vivo, 10 mg/kg oral, read-out: mean apparent half-life of elimination): 148 min | AUC ([1]; in vivo, oral, 10 mg/kg, read-out: average AUC (converted)): 1080 ng·h/mL | Cmax ([1]; in vivo, oral, 10 mg/kg, read-out: maximum concentration (Cmax)): 284 ng/mL | LD50 ([2]; iv): 12.3 mg/kg | LD50 ([2]; po): 283 mg/kg | Cerebral content of H2O ([3]; 0.25 mg/kg p.o.): 79.2 ± 0.57% | Cerebral content of Ca++ ([3]; 0.5 mg/kg p.o.): 11.7 ± 3.00 mmol · kg^-1 dry weig | Cerebral content of H2O ([3]; 0.5 mg/kg p.o.): 78.3 ± 0.39% | Cerebral content of Ca++ ([3]; 1 mg/kg p.o.): 11.7 ± 5.53 mmol · kg^-1 dry weig | Cerebral content of H2O ([3]; 1 mg/kg p.o.): 77.8 ± 0.47% | Cerebral content of Ca++ ([3]; 3 mg/kg p.o.): 12.6 ± 3.89 mmol · kg^-1 dry weig | Cerebral content of H2O ([3]; 3 mg/kg p.o.): 78.8 ± 0.44% | DBP (diastolic blood pressure) ([4]; 1 min): 13.0 ± 0.74 | MBP (mean blood pressure) ([4]; 1 min): 14.8 ± 0.64 | SBP (systolic blood pressure) ([4]; 1 min): 18.4 ± 0.48 | HR (heart rate) ([4]; 1 min): 556 ± 9.8 | DBP (diastolic blood pressure) ([4]; 2 min): 12.0 ± 0.35 | MBP (mean blood pressure) ([4]; 2 min): 13.9 ± 0.28 | SBP (systolic blood pressure) ([4]; 2 min): 17.8 ± 0.26 | HR (heart rate) ([4]; 2 min): 556 ± 7.5 | DBP (diastolic blood pressure) ([4]; 5 min): 10.4 ± 0.33 | MBP (mean blood pressure) ([4]; 5 min): 12.7 ± 0.19 | SBP (systolic blood pressure) ([4]; 5 min): 17.2 ± 0.26 | HR (heart rate) ([4]; 5 min): 564 ± 7.5 | reduction of diastolic blood pressure (DBP) ([4]; 5 min after administration): 3.1 KPA | DBP (diastolic blood pressure) ([4]; 10 min): 9.4 ± 0.19 | MBP (mean blood pressure) ([4]; 10 min): 11.6 ± 0.15 | SBP (systolic blood pressure) ([4]; 10 min): 15.9 ± 0.19 | HR (heart rate) ([4]; 10 min): 536 ± 7.5 | DBP (diastolic blood pressure) ([4]; 15 min): 9.8 ± 0.34 | MBP (mean blood pressure) ([4]; 15 min): 11.7 ± 0.28 | SBP (systolic blood pressure) ([4]; 15 min): 15.6 ± 0.29 | HR (heart rate) ([4]; 15 min): 524 ± 11.7 | DBP (diastolic blood pressure) ([4]; 30 min): 11.3 ± 0.62 | MBP (mean blood pressure) ([4]; 30 min): 12.9 ± 0.51 | SBP (systolic blood pressure) ([4]; 30 min): 16.0 ± 0.35 | HR (heart rate) ([4]; 30 min): 496 ± 22.3 | DBP (diastolic blood pressure) ([4]; 60 min): 12.4 ± 0.40 | MBP (mean blood pressure) ([4]; 60 min): 14.0 ± 0.35 | SBP (systolic blood pressure) ([4]; 60 min): 17.3 ± 0.26 | HR (heart rate) ([4]; 60 min): 428 ± 24.2 | DBP (diastolic blood pressure) ([4]; 120 min): 13.7 ± 0.87 | MBP (mean blood pressure) ([4]; 120 min): 15.3 ± 0.90 | SBP (systolic blood pressure) ([4]; 120 min): 18.5 ± 1.06 | DBP (diastolic blood pressure) ([4]; TO (baseline)): 13.5 ± 0.55 | MBP (mean blood pressure) ([4]; TO (baseline)): 13.2 ± 0.50 | SBP (systolic blood pressure) ([4]; TO (baseline)): 18.5 ± 0.47 | HR (heart rate) ([4]; TO (baseline)): 432 ± 28.7
